GI50 and TGI data for seven compounds are collected here from PubChem BioAssay (NCI).

Among the test systems are A549 NSCLC; DU-145 prostate; HOP-92 NSCLC; LOX IMVI melanoma; MCF7 breast; OVCAR-4 ovarian; OVCAR-8 ovarian; RPMI-8226 leukemia; SK-OV-3 ovarian; SR leukemia.
Common to all, as to test: inhibition of tumour cell growth, NCI panel, 48 h

Structures are written as SMILES.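 1) Cells in 96-well plates. 2) Compound, 48 h, 5 concentrations. 3) Linear interpolation between surrounding doses. 4) Unreached endpoint = highest concentration. GI50: concentration for 50% inhibition of growth. TGI is the concentration that stops growth completely.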

As for `CCN(Cc1ccc(F)cc1)c1ccc(CO)c(C)c1`, the GI50 with A549 NSCLC is 17.1 µM; in the experiment with DU-145 prostate it was 21.1 µM; in the experiment on HOP-92 NSCLC, 8.45 µM; in the experiment with LOX IMVI melanoma, 14.9 µM; in the experiment with MCF7 breast, 15.1 µM; in the experiment with OVCAR-4 ovarian it was 2.46 µM. Besides, the GI50 in the experiment on OVCAR-8 ovarian was 11.9 µM; in the experiment on RPMI-8226 leukemia it was 6.69 µM; in the experiment on SK-OV-3 ovarian it was 8.91 µM; in the experiment with SR leukemia, 20.3 µM. Besides, the TGI is 69.4 µM in the experiment with A549 NSCLC; 59.2 µM in the experiment on DU-145 prostate; 27 µM in the experiment on HOP-92 NSCLC; 29 µM in the experiment on LOX IMVI melanoma; > 52.2 µM in the experiment with MCF7 breast; 14.3 µM in the experiment on OVCAR-4 ovarian. Moreover, the TGI with OVCAR-8 ovarian is 38.4 µM; with RPMI-8226 leukemia it was 37.1 µM; in the experiment on SK-OV-3 ovarian, 41.5 µM; in the experiment on SR leukemia it was 58.1 µM.

Take `Cc1cn(C2C=CC(CO)O2)c(=O)[nH]c1=O` (stereo not given): the TGI with A549 NSCLC, in the experiment with DU-145 prostate, with HOP-92 NSCLC, in the experiment with LOX IMVI melanoma, with MCF7 breast and in the experiment on OVCAR-4 ovarian was > 1000 µM throughout. The TGI with OVCAR-8 ovarian, with RPMI-8226 leukemia, with SK-OV-3 ovarian and with SR leukemia was > 1000 µM in each case.

In the case of `CC(C)(C)c1ccc(OC(=O)Nc2ccc(O)c(C(=O)O)c2)cc1`, the TGI with A549 NSCLC, in the experiment on DU-145 prostate, with HOP-92 NSCLC, in the experiment with LOX IMVI melanoma, in the experiment on MCF7 breast and in the experiment on OVCAR-4 ovarian was > 100 µM in each case. Also, the TGI in the experiment on OVCAR-8 ovarian, in the experiment on RPMI-8226 leukemia, in the experiment on SK-OV-3 ovarian and in the experiment on SR leukemia was > 100 µM each time.

With `COc1ccc2c(c1)CC[C@@H]1[C@@H]2CC[C@]2(C)[C@@H](NC(=O)/C=C/c3ccc(O)c(O)c3)CC[C@@H]12`, the GI50 in the experiment on A549 NSCLC was 4.58 µM; with DU-145 prostate it was 12.6 µM; in the experiment with HOP-92 NSCLC, 2.49 µM; with LOX IMVI melanoma, 3.15 µM; in the experiment with MCF7 breast, 5.24 µM; in the experiment on OVCAR-4 ovarian, 11.9 µM. For the same compound, the GI50 was 4.2 µM with OVCAR-8 ovarian, 1.08 µM in the experiment with RPMI-8226 leukemia, 11.5 µM in the experiment on SK-OV-3 ovarian and 1.51 µM with SR leukemia. Besides, the TGI with A549 NSCLC is 17.6 µM; with DU-145 prostate, 30.4 µM; with HOP-92 NSCLC it was 11.6 µM; in the experiment on LOX IMVI melanoma, 13.7 µM; in the experiment on MCF7 breast it was > 100 µM; in the experiment on OVCAR-4 ovarian, 74.7 µM. For the same compound, the TGI came to 16.7 µM in the experiment on OVCAR-8 ovarian, 9.79 µM in the experiment on RPMI-8226 leukemia, 27.1 µM with SK-OV-3 ovarian and 4.21 µM in the experiment on SR leukemia.

Regarding `Oc1ccc(-c2nc3ccc4[nH]ncc4c3c3c2CCCC3)c(F)c1`, the GI50 in the experiment on A549 NSCLC was 1.17 µM; with DU-145 prostate it was 2.89 µM; in the experiment on HOP-92 NSCLC, 2.07 µM; in the experiment with LOX IMVI melanoma, 2.9 µM; in the experiment on MCF7 breast it was 4.91 µM; in the experiment on OVCAR-4 ovarian, 3.38 µM. In addition, the GI50 with OVCAR-8 ovarian was 1.92 µM; with RPMI-8226 leukemia, 1.8 µM; with SK-OV-3 ovarian it was 0.765 µM; with SR leukemia, 0.464 µM. The TGI in the experiment with A549 NSCLC stood at 6.11 µM; in the experiment on DU-145 prostate it was 13.2 µM; with HOP-92 NSCLC, 9.8 µM; with LOX IMVI melanoma, 12.4 µM; with MCF7 breast it was 20.7 µM; with OVCAR-4 ovarian, 16.1 µM. Moreover, the TGI in the experiment on OVCAR-8 ovarian was found to be 9.39 µM; in the experiment with RPMI-8226 leukemia it was 10.7 µM; with SK-OV-3 ovarian, 2.75 µM; with SR leukemia, 7.46 µM.

For `CCOC(=O)c1c(C)n(Cc2ccccc2)c2c1cc(O)c1[nH]c(Cc3ccccc3)nc12`, the GI50 in the experiment with A549 NSCLC was 12.4 µM; in the experiment on DU-145 prostate, 20.5 µM; in the experiment with HOP-92 NSCLC, 20.2 µM; with LOX IMVI melanoma it was 13.8 µM; in the experiment with MCF7 breast, 7.4 µM; with OVCAR-4 ovarian it was 10.9 µM. In addition, the GI50 with OVCAR-8 ovarian is 29.6 µM; with RPMI-8226 leukemia, 11.5 µM; with SK-OV-3 ovarian it was 23.2 µM; in the experiment with SR leukemia, 3.23 µM. Also, the TGI is 65.7 µM in the experiment with A549 NSCLC; > 57.7 µM in the experiment on DU-145 prostate; 68.8 µM in the experiment with HOP-92 NSCLC; > 67.8 µM in the experiment on LOX IMVI melanoma; > 53.1 µM in the experiment with MCF7 breast; > 57.3 µM in the experiment with OVCAR-4 ovarian. For the same compound, the TGI in the experiment on OVCAR-8 ovarian is > 100 µM; in the experiment with RPMI-8226 leukemia it was > 100 µM; with SK-OV-3 ovarian, > 100 µM; with SR leukemia, 25.3 µM.

Take `COc1cccc(-c2nn(-c3ccccc3)cc2-c2ccnc(NCCNC(=O)Nc3cccc(C(F)(F)F)c3)c2)c1`: the GI50 was 3.38 µM in the experiment on A549 NSCLC; 4.16 µM in the experiment on DU-145 prostate; 1.46 µM with HOP-92 NSCLC; 1.64 µM in the experiment on LOX IMVI melanoma; 2.07 µM in the experiment on MCF7 breast; 2.36 µM in the experiment on OVCAR-4 ovarian. The GI50 in the experiment on OVCAR-8 ovarian is 3.3 µM; in the experiment with RPMI-8226 leukemia it was 2.23 µM; in the experiment on SK-OV-3 ovarian, 3.5 µM; with SR leukemia it was 1.91 µM. Also, the TGI was found to be 11.5 µM in the experiment with A549 NSCLC; 14.9 µM with DU-145 prostate; 3.28 µM with HOP-92 NSCLC; 2.99 µM in the experiment on LOX IMVI melanoma; 4.89 µM with MCF7 breast; 8.13 µM with OVCAR-4 ovarian. The TGI in the experiment on OVCAR-8 ovarian worked out at 9.77 µM; in the experiment with RPMI-8226 leukemia, 5.54 µM; in the experiment with SK-OV-3 ovarian, 12.2 µM; in the experiment with SR leukemia, 4.97 µM.
